Assay results taken from patent US20030055106A1, “Therapeutic uses of peroxometallic compounds” (priority 1999, published 2003).

Columns and labels:
left carotid artery = assay: Balloon angioplasty of the left carotid artery (restenosis); type: in vivo, Male Sprague-Dawley rats
Description: The data presented in Table IV show the effect of the pV compound bpV(bipy) on restenosis. Male Sprague-Dawley rats (325-350 g) were anaesthetized with Rogarsetic, a mixture of ketamine hydrochloride and xylazine hydrochloride. The animals were divided into two groups of 14-31 rats that underwent balloon angioplasty of the left carotid artery, with or without treatment (108). The treated group received bpV (bipy) (10 mg/kg/i.p. b.i.d.) for 14 days, starting on the day of the angioplasty. Every animal in each group underwent balloon angioplasty of the left external carotid whereas the contra-lateral carotid served as a control for each animal. The left carotid artery balloon angioplasty was performed under aseptic conditions. The left external carotid was isolated and an arteriotomy was performed. A 2F Fogarty arterial embolectomy catheter was then inserted in the left common carotid and positioned near the aortic arch. The balloon was then inflated and retracted with a twisting motion to its insertion point. This procedure was repeated twice and the external carotid was ligated. There were no differences in the lumina (L), intima (I), media (M), the ratio of I/M and calculated value of (M−L/P) as a measure of neointimal proliferation (NIP) between normal, non-ballooned carotid artery of treated and non-treated rats, serving as controls (data not shown).

HUVECs = assay: HUVEC differentiation and organization into tubular-like structures in fibrin matrix; type: cell-based, Human; parameters: key to cords / tubes / Stell. struct.: †: Dead cells
Description: Alternatively, HUVECs cultured in a fibrin matrix can form 3-dimensional tubular-like structures in the presence of serum (103). This assay was performed in the presence of either bpV(phen), bpv(pic) or vanadate to assess the influence of each one of these compounds on HUVEC differentiation and organization (Table 1). HUVECs were seeded on the bottom of gelatin-coated wells at high density to provide a confluent monolayer at 48 hours.
Then, 50 000 HUVECs/ml were embedded in fibrinogen solution prior to polymerization. The fibrin matrix was covered with culture medium containing the molecule to be tested, while culture medium without any of these molecules served as controls. Cell behavior was observed periodically by phase contrast microscopy.

Rat aorta rings = assay: Rat aortic ring assay (cell/microvessel migration in fibrin gel); type: cell-based
Excerpt: FIG. 3: Micrographs of the cell migration from aortic rings embedded in fibrin (×12).
FIG. 4: Quantification of the cell migration from aortic rings in the presence of orthovanadate (plain bars); bpV(phen) (light gray bars); and bpV(pic) (dark gray bars). The control appears as an empty bar. Means and standard errors of the means are presented.
Rat aorta rings were embedded in fibrin matrix as previously described (107). Thoracic aortas excised from adult rats were rinsed in Hank's balanced salt solution (HBSS), and cleansed of periadventitial. One-mm long aortic rings were sectioned and rinsed in culture medium. Each of the aortic rings were then embedded in fibrin gel matrix. Migration of microvessels in fibrin gel was quantified by measuring the distance from the external surface of rat aortic rings towards the migrating vessels. Measurements were performed at day 15 by digitizing morphometry with a NIH image analysis system (FIGS. 3 and 4).

[1] = system: Human umbilical vein endothelial cells (HUVECs); details: read-out: approximate IC50, endothelial cell proliferation; 96 hours in culture
Description: Each experiment was performed in triplicate. The culture medium was changed daily.

[2] = system: vitelline membrane of chick embryos; assay: Embryonic vascularization test (EVT) ex ovo; type: in vivo; details: for approximate IC50, neovascularization (regardless of the scoring system): per methylcellulose disc
Excerpt: FIG. 2: A and B show an anti-angiogenic response to bpV(phen), orthovanadate (Van) and protamine (Prot) using a vascularization test on the vitelline membrane of chick embryos. Each point represents a minimum of 15 embryos (15 to 28).
The normal development of a chick embryo involves the formation of an external vascular system which is located in the vitelline membrane and which carries nutrients from the vitellus (yolk of the egg) to the developing embryo. When placed onto the vitelline membrane, anti-angiogenic substances can inhibit blood vessel development in the vitelline membrane. To facilitate access to the vitelline membrane, chick embryos were transferred to a sterile culture box (Petri dish) and placed in a humidity- and temperature-controlled incubator. Embryos could then develop in this ex ovo condition for several days.
An aliquot of the tested compound was mixed with a methylcellulose solution and allowed to air-dry into thin discs. Methylcellulose forms an inert matrix from which the tested compound can diffuse slowly. Methylcellulose discs containing the tested compound were placed on the external border of the vascular perimeter of the vitelline membrane where the angiogenic process was still active.
The effects of the discs containing the tested compound on proximal vascular development were, in all cases, compared with those of discs containing control buffer. The discs were placed on the embryos' vitelline membrane on Day 0 or Day 1 of the ex ovo growth process; at this point, only beginnings of the main blood vessels are invading the vitellus. The embryos were then put in culture conditions until vascularization was assessed (approximately 24 h). Control buffer- and compound-containing discs were in all cases added simultaneously on the vitelline membrane of the same embryo. Both discs were arranged in a symmetrical fashion with respect to the cephalo-caudal axis of the embryo in order to minimize inter-individual variations when comparing the tested compounds with controls.
[…] After one day in culture, the level of vascularization in the area covered by the discs was graded by a pair of scientists in the usual blind fashion. To facilitate the location of the discs, black O-rings were placed around them just after their placement on the vitelline membrane. The evaluation scale for the EVTs was based on two different scoring systems.
Blood vessel formation was assessed in a blind fashion. The areas of the vitelline membranes that lay beneath the methylcellulose discs were scored for the degree of vascularization, using two scoring systems (“N/+” or “1-2-3”). The following selection criteria were used:
A score of “N” for “Normal” was attributed when all the following conditions were met:
Blood vessels in the evaluated area grew along their path with no abnormal deviation. Collateral branching density was normal and the growth path of the lateral branches was also normal.
A score of “+” was attributed when at least one of the following conditions was met:
1-2-3 Grading Scale System:
A score of 3 was attributed when the following conditions were met:
A score of 2 was attributed when at least one of the following conditions was met:
A score of 1 was attributed when at least one of the following conditions was met:
A score of 3 meant that blood vessel development was normal whereas a score of 1 indicated the greatest degree of angiostatic activity.

ETs (ET-1, ET-2, ET-3) = assay: Plasma endothelin levels after insulin (RIA); type: in vivo; details: rats; two minutes after insulin 1.5 μg/100 g b.w.; no bpV(phen)
Description: The data presented in Table III show the effect of bpV(phen) on the plasmatic levels of ETs. […] Two minutes following insulin administration (1.5 μg/100 g b.w, or vehicle), the plasma levels of ETs were determined. Insulin administration induced a strong increase of seric ET concentration (54). […] In addition, bpV(phen) decreased the insulin-stimulated levels of plasmatic ETs below control levels. […] ETs (ET-1, ET-2, ET-3) were measured by RIA (Amersham kit RPA 555) after lyophilization and extraction on C2 columns (500 mg). Results are mean ±SEM, p<0.0209, control (n=4) vs Insulin, pV (n=3).

[3] = 10 mg/kg/i.p. b.i.d. for 14 days, ballooned left carotid
[4] = treated vs non-treated, 10 mg/kg/i.p. b.i.d. 14 days
[5] = anti-angiogenic effect on stellate structures

[K+].[O]=[V-]12([O][O]1)[O][O]2.c1ccc(-c2ccccn2)nc1 [bpV(bipy), potassium bisperoxo(2,2′-bipyridyl) oxovanadate]
I (intima) (left carotid artery; [3]): 0.112 mm^2 | I/M (left carotid artery; [3]): 1.086 | L (lumina) (left carotid artery; [3]): 0.112 mm^2 | M (media) (left carotid artery; [3]): 0.104 | NIP (neointimal proliferation) (left carotid artery; [3]): 0.045 mm | decrease in NIP (left carotid artery; [4]): 32% | decrease in the I/M ratio (left carotid artery; [4]): 32% | increase in the opening of the L (left carotid artery; [4]): 28% | reduction in the thickness of the I (left carotid artery; [4]): 21%

O=C(O)c1ccccn1.OO.OO.[K+].[K+].[O]=[V] [bpV(pic), potassium bisperoxo(pyridine-2-carboxylato)oxovanadate]
structures observed by phase contrast microscopy (HUVECs; 1, 2 and 3.5 μM): cords and tubes were observed | cell migration from aortic rings (Rat aorta rings; 10-25 μM): inhibition was seen | IC50 [1]: ~3.5 µM

[O]=[V]([O-])([O-])[O-] [orthovanadate]
structures observed by phase contrast microscopy (HUVECs; 10 μM): cords were still apparent | Stell. struct. (HUVECs; 25 μM): † | cords (HUVECs; 25 μM): † | structures observed by phase contrast microscopy (HUVECs; 25 μM): dead cells were sparsely distributed | tubes (HUVECs; 25 μM): † | times less potent than bpV(phen) (HUVECs; [5]): ≥ 5 times | times less potent than bpV(pic) (HUVECs; [5]): at least 3 times | cell migration from aortic rings (Rat aorta rings; 3.5 μM): no effect | cell migration from aortic rings (Rat aorta rings; 25 μM): partial inhibition | Anti-angio.activity 1 to 3 (1: no angiogenesis; 3: normal angiogenesis) ([2]; 0.001 μg, Assay 3): 2.8 | Anti-angio.activity % (proportion of embryos showing an anti-angiogenic response) ([2]; 0.001 μg, Assay 3): 7% | Anti-angio.activity 1 to 3 (1: no angiogenesis; 3: normal angiogenesis) ([2]; 0.001 μg, Assay 5): 2.8 | Anti-angio.activity % (proportion of embryos showing an anti-angiogenic response) ([2]; 0.001 μg, Assay 5): 7% | Anti-angio.activity 1 to 3 (1: no angiogenesis; 3: normal angiogenesis) ([2]; 0.01 μg, Assay 3): 2.4 | Anti-angio.activity % (proportion of embryos showing an anti-angiogenic response) ([2]; 0.01 μg, Assay 3): 24% | Anti-angio.activity 1 to 3 (1: no angiogenesis; 3: normal angiogenesis) ([2]; 0.01 μg, Assay 5): 2.4 | Anti-angio.activity % (proportion of embryos showing an anti-angiogenic response) ([2]; 0.01 μg, Assay 5): 24% | Anti-angio.activity 1 to 3 (1: no angiogenesis; 3: normal angiogenesis) ([2]; 0.1 μg, Assay 3): 2.4 | Anti-angio.activity % (proportion of embryos showing an anti-angiogenic response) ([2]; 0.1 μg, Assay 3): 28% | Anti-angio.activity 1 to 3 (1: no angiogenesis; 3: normal angiogenesis) ([2]; 0.1 μg, Assay 5): 2.4 | Anti-angio.activity % (proportion of embryos showing an anti-angiogenic response) ([2]; 0.1 μg, Assay 5): 28% | Anti-angio.activity 1 to 3 (1: no angiogenesis; 3: normal angiogenesis) ([2]; 1 μg, Assay 3): 2.0 | Anti-angio.activity % (proportion of embryos showing an anti-angiogenic response) ([2]; 1 μg, Assay 3): 70% | Anti-angio.activity 1 to 3 (1: no angiogenesis; 3: normal angiogenesis) ([2]; 1 μg, Assay 4): 1.7 | Anti-angio.activity % (proportion of embryos showing an anti-angiogenic response) ([2]; 1 μg, Assay 4): 57% | Anti-angio.activity 1 to 3 (1: no angiogenesis; 3: normal angiogenesis) ([2]; 1 μg, Assay 5): 1.9 | Anti-angio.activity % (proportion of embryos showing an anti-angiogenic response) ([2]; 1 μg, Assay 5): 64% | approximate IC50, neovascularization (regardless of the scoring system) [2]: ~0.6 µg

Insulin: insulin administered to rats to induce an increase of ET concentration
Plasma endothelins (ETs (ET-1, ET-2, ET-3)): 253.10 pg/mL

Protamine
Anti-angio.activity 1 to 3 (1: no angiogenesis; 3: normal angiogenesis) ([2]; 5 μg, Assay 1): 2.3 | Anti-angio.activity % (proportion of embryos showing an anti-angiogenic response) ([2]; 5 μg, Assay 1): 23% | Anti-angio.activity 1 to 3 (1: no angiogenesis; 3: normal angiogenesis) ([2]; 5 μg, Assay 4): 2.3 | Anti-angio.activity % (proportion of embryos showing an anti-angiogenic response) ([2]; 5 μg, Assay 4): 9% | Anti-angio.activity 1 to 3 (1: no angiogenesis; 3: normal angiogenesis) ([2]; 5 μg, Assay 5): 2.3 | Anti-angio.activity % (proportion of embryos showing an anti-angiogenic response) ([2]; 5 μg, Assay 5): 16% | Anti-angio.activity 1 to 3 (1: no angiogenesis; 3: normal angiogenesis) ([2]; 10 μg, Assay 4): 2.1 | Anti-angio.activity % (proportion of embryos showing an anti-angiogenic response) ([2]; 10 μg, Assay 4): 54% | Anti-angio.activity 1 to 3 (1: no angiogenesis; 3: normal angiogenesis) ([2]; 10 μg, Assay 5): 2.1 | Anti-angio.activity % (proportion of embryos showing an anti-angiogenic response) ([2]; 10 μg, Assay 5): 54% | Anti-angio.activity 1 to 3 (1: no angiogenesis; 3: normal angiogenesis) ([2]; 20 μg, Assay 1): 2.0 | Anti-angio.activity % (proportion of embryos showing an anti-angiogenic response) ([2]; 20 μg, Assay 1): 46% | Anti-angio.activity 1 to 3 (1: no angiogenesis; 3: normal angiogenesis) ([2]; 20 μg, Assay 2): 1.5 | Anti-angio.activity % (proportion of embryos showing an anti-angiogenic response) ([2]; 20 μg, Assay 2): 80% | Anti-angio.activity 1 to 3 (1: no angiogenesis; 3: normal angiogenesis) ([2]; 20 μg, Assay 3): 1.5 | Anti-angio.activity % (proportion of embryos showing an anti-angiogenic response) ([2]; 20 μg, Assay 3): 79% | Anti-angio.activity 1 to 3 (1: no angiogenesis; 3: normal angiogenesis) ([2]; 20 μg, Assay 4): 1.8 | Anti-angio.activity % (proportion of embryos showing an anti-angiogenic response) ([2]; 20 μg, Assay 4): 80% | Anti-angio.activity 1 to 3 (1: no angiogenesis; 3: normal angiogenesis) ([2]; 20 μg, Assay 5): 1.7 | Anti-angio.activity % (proportion of embryos showing an anti-angiogenic response) ([2]; 20 μg, Assay 5): 71% | Anti-angio.activity 1 to 3 (1: no angiogenesis; 3: normal angiogenesis) ([2]; 30 μg, Assay 4): 1.8 | Anti-angio.activity % (proportion of embryos showing an anti-angiogenic response) ([2]; 30 μg, Assay 4): 67% | Anti-angio.activity 1 to 3 (1: no angiogenesis; 3: normal angiogenesis) ([2]; 30 μg, Assay 5): 1.8 | Anti-angio.activity % (proportion of embryos showing an anti-angiogenic response) ([2]; 30 μg, Assay 5): 67% | approximate IC50, neovascularization (regardless of the scoring system) [2]: ~11 µg
